In brackets after ≈: the same amount, converted by molar mass.
How the values were obtained:
[1] = Solubility limit in 1 M NaOH; type: physicochemical; conditions: aqueous buffer
Source text: In one embodiment, the phenazine derivative is present in the electrolyte at a concentration within a range of 0.01 M to 4 M. In an independent embodiment, the phenazine derivative is present in the electrolyte at a concentration within a range of from 4 M to 8 M. Certain embodiments of the phenazine derivatives provide 2 moles of electron transfer per mole of the compound, thus providing, for example, 2 M electron transfer when the phenazine derivative concentration is 1 M.

[2] = Cyclic voltammetry in 1 M NaOH; type: physicochemical; conditions: scan rate 100 mV/sec, 8.5 mM
Experimental: Electrochemical Methods: Cyclic voltammetry experiments were performed with a CH Instruments model 660C potentiostat using a glassy carbon working electrode, a platinum wire counter electrode, and a Ag/AgCl reference electrode.
[…]. This potential exceeds all other aqueous organic flow battery systems reported to date, which, combining the high effective electron concentration resulted from high solubility, leads to high theoretical energy densities.

[3] = cited from earlier work

solubility [1] | redox couple (vs. Ag/AgCl) [2] | SMILES | solubility in water [3]
1450 mM (≈ 424 mg/mL) | −1.08 V | O=S(=O)(O)c1ccc2nc3cc(O)c(O)cc3nc2c1 [DHPS, 7,8-dihydroxy-phenazine-2-sulfonic acid] | –
– | – | c1ccc2nc3ccccc3nc2c1 [phenazine] | insoluble in water

Reference: patent US10454124B2, “Highly stable phenazine derivatives for aqueous redox flow batteries” (Battelle Memorial Institute, priority 2017, dated 2019)
